Experimental data from US20240093191A1, “COMPOSITIONS AND METHODS FOR TREATING DISEASE ASSOCIATED WITH DUX4 OVEREXPRESSION” (RESEARCH INSTITUTE AT NATIONWIDE CHILDREN'S HOSPITAL, priority 2021, published 2024).

Assays:
ZSCAN4 = test: ddPCR of ZSCAN4 in drug-treated 18A FSHD myotubes; type: cell-based, human; conditions: 40 μM, added 4th day, collected 5th day of differentiation
Procedure: 18A FSHD affected muscles cell lines were treated with increasing concentrations of Pyrazinamide or Sorafenib at the 4th day of differentiation into myotubes. Cells were collected at the 5th day of differentiation. RNA was extracted and ddPCR gene expression analysis on DUX4, TRIM43 and ZSCAN4 was carried out. As a result, 40 μM of Pyrazinamide reduced TRIM43 and ZSCAN4 expression by 35±7% (ANOVA, P=0.0378, N=3 independent experiments) and 42±6% (ANOVA, P=0.0043, N=3 independent experiments), respectively (FIG. 35). Sorafenib reduced DUX4, TRIM43 and ZSCAN4 expression in a dose dependent manner, where it reached maximum inhibition when used at a concentration of 40 μM. At the latter, Sorafenib reduced DUX4, TRIM43 and ZSCAN4 expression by 40±10% (ANOVA, P=0.0486, N=3 independent experiments), 70±4% (ANOVA, P=0.0003, N=3 independent experiments) and 68±3% (ANOVA, P=0.0001, N=3 independent experiments), respectively (FIG. 35).

mir-675 = conditions: published gene expression studies; cited from earlier work
DUX4 [1] = test: ddPCR of DUX4 in drug-treated FSHD myotubes; type: cell-based, human; conditions: for DUX4 (% decrease): 20 μM
Excerpt: (§1) Primary Cell Culture. 15A, 17A sand 18A FSHD human myoblasts and 15V control human myoblasts were provided by the UMMS Wellstone Center for FSHD and have been previously characterized [Jones et al., Hum. Mol. Genet. 21: 4419-4430 (2012)]. Previously immortalized 15A cell lines have a single 4qA permissive allele. […] 15V cell lines have two 4qB non-permissive alleles. Cells were propagated by feeding them every two days with new LHCN medium [4:1 DMEM:Medium 199 (Gibco) supplemented with 15% characterized FBS (Corning), 0.02 M HEPES (Thermo Fisher), 0.03 μg/mL ZnSO4 (Honeywell Fluka), 1.4 μg/mL Vitamin B12 (Sigma-Aldrich), 0.055 μg/mL dexamethasone (Sigma-Aldrich), 1% antibiotics/antimycotics (Gibco), 2.5 ng/mL hepatocyte growth factor (Millipore) and 10 ng/mL basic fibroblast growth factor (Millipore)]. For differentiation, myoblasts were switched to a differentiation medium [4:1 DMEM: Medium 199 (Gibco) supplemented with 15% KnockOut Serum Replacement (ThermoFisher Scientific), 2 mM L-glutamine (Gibco), 1% antibiotics/antimycotics (Gibco), 1 mM sodium pyruvate (Gibco) and 20 mM HEPES (ThermoFisher Scientific)] when cells were at >90% confluency. Before adding differentiation medium, cells were washed with PBS (Gibco). Cells were seeded with new differentiation medium every three days for up to 7 days. To detach cells, TrypLE™ Express, phenol red (ThermoFisher Scientific) was used.
(§2) Digital Droplet PCR (ddPCR). For mir-675 and mi405 constructs, RNA extraction was carried out as described for QPCR above. For cDNA synthesis, the TaqMan advanced cDNA synthesis kit (Thermo Fisher) was used and cDNA was prepared by following manufacturer's instructions. ddPCR was carried out using 1× ddPCR Supermix for probes (No dUTP) (Bio-Rad), 1× commercially available mir-675 advanced TaqMan probe, or a custom made mi405 advanced TaqMan probe (ThermoFisher) and 50 ng of cDNA. For DUX4 cDNA synthesis, the High-Capacity cDNA Reverse Transcription Kit (Applied Biosystems) was used according to manufacturer's instructions. Within the same cDNA reaction, 1×RT random hexamer primers and 25 pmoles of the Oligo(dT) primer were used to generate cDNA for DUX4 and DUX4-responsive biomarkers and for mouse Rpl13A, used as a reference gene. To quantify DUX4, the ddPCR reaction mixture (20 μL) contained 1× ddPCR Evagreen Supermix (Bio-Rad), 1 μM of forward and reverse DUX4 primers (Sharma et al., J Genet Syndr Gene Ther 2016 August; 7(4):303. doi: 10.4172/2157-7412.1000303. Epub 2016 Aug. 8), and 50 ng of cDNA. To quantify Rpl13A and DUX4-responsive biomarkers (Trim36 and Wfdc3), the 1× ddPCR Supermix for probes (No dUTP) and TaqMan specific probes were used for each of the genes. Droplets were generated using the Automatic Droplet generator QX200 AutoDG (Bio-Rad), the reactions were amplified in a C1000 Touch™ Thermal Cycler with 96-Deep Well Reaction Module (Bio-Rad). Cycling conditions were set up following the QX200 ddPCR Evagreen Supermix protocol. All assays are compatible with an annealing temperature of 58° C. Droplets were then read using the QX200 droplet reader (Bio-Rad). Finally, data were analyzed using the QuantaSoft analysis software (Bio-Rad). For quantification, each reaction of 20 μL was estimated to give at least 10,000 acceptable droplets.
(§3) Next, the effects of the three treatment regimens were tested on the expression of endogenous mir-675-5p, DUX4 and TRIM43 in 15A, 17A and 18A FSHD differentiated muscle cell lines (myotubes) (FIG. 29 and Table 4). […] Mol. Genet. 21: 4419-30 (2012)]. In FIG. 29, β-estradiol, medroxyprogesterone acetate (MPA) and melatonin increased mir-675 expression and reduced the expression of DUX4 and the DUX4-induced biomarker TRIM43 in three FSHD affected myotube lines. Droplet digital PCR (ddPCR) was used to measure mir-675-5p, DUX4 and TRIM43 levels in 15A (A), 17A (B) and 18A (C) FSHD affected myotubes five days after differentiation. […]

TRIM43 [2] = test: ddPCR of TRIM43 in drug-treated FSHD myotubes; type: cell-based, human; conditions: for reduction of TRIM43 expression: 18A FSHD myotubes, 40 μM, added 4th day, collected 5th day of differentiation; for TRIM43 (% decrease): 20 μM
Excerpt: as §1, §2, §3

mir-675-5p [3] = test: ddPCR of mir-675-5p in drug-treated FSHD myotubes; type: cell-based, human; conditions: 20 μM
Excerpt: as §1, §2, §3

TRIM43 [4] = test: ddPCR of TRIM43 in drug-treated DUX4-transfected HEK293 cells; type: cell-based, human; conditions: for TRIM43 (% decrease): vs ethanol vehicle
Procedure: as §2
Three small molecule candidates (β-estradiol, a combination of β-estradiol+medroxyprogesterone acetate (MPA), and melatonin) were tested for their ability to upregulate mir-675-5p in HEK293 cells and in human myotubes. HEK293 cells normally express minimal amounts of mir-675. HEK293 cells were treated with (1) 20 μM β-estradiol alone; (2) 10 μM or 20 μM β-estradiol+MPA; or (3) 20 μM or 40 μM melatonin. 24 hours after treatment, mir-675-5p expression was measured by Droplet Digital PCR (ddPCR).
In FIG. 28, β-estradiol, medroxyprogesterone acetate (MPA) and melatonin increased mir-675 expression and reduced the expression of DUX4 and DUX4-induced biomarker TRIM43 in HEK293 cells. Droplet Digital PCR (ddPCR) was carried out to measure mir-675-5p, DUX4 and TRIM43 levels. HEK293 cells were transfected with DUX4 and were treated with two drugs individually (i.e., β-estradiol and melatonin) or with a combination of β-estradiol and MPA at 10, 20 or 40 μM at the time of transfection. The effects of these drugs were evaluated by comparison to ethanol (vehicle)-treated cells. Numbers correspond to n=3 independent experiments (ANOVA, P<0.0001). The quantification (percent change) of gene expression from HEK293 cells treated with β-estradiol, β-estradiol+MPA, or melatonin was measured using droplet digital PCR (ddPCR) and is reported in Table 3 set out below. Anti-mir-675 is an antagomiR targeting the mature sequence of mir-675-5p, inhibiting its function as inhibitor of DUX4 gene expression. CMV.DUX4-mir-675Res is an expression plasmid encoding a DUX4 mutant sequence. […]

mir-675-5p [5] = test: ddPCR of mir-675-5p in drug-treated DUX4-transfected HEK293 cells; type: cell-based, human; conditions: vs ethanol vehicle
Procedure: as §2
Three small molecule candidates (β-estradiol, a combination of β-estradiol+medroxyprogesterone acetate (MPA), and melatonin) were tested for their ability to upregulate mir-675-5p in HEK293 cells and in human myotubes. HEK293 cells normally express minimal amounts of mir-675. […] 24 hours after treatment, mir-675-5p expression was measured by Droplet Digital PCR (ddPCR).
In FIG. 28, β-estradiol, medroxyprogesterone acetate (MPA) and melatonin increased mir-675 expression and reduced the expression of DUX4 and DUX4-induced biomarker TRIM43 in HEK293 cells. […] The effects of these drugs were evaluated by comparison to ethanol (vehicle)-treated cells. […] The quantification (percent change) of gene expression from HEK293 cells treated with β-estradiol, β-estradiol+MPA, or melatonin was measured using droplet digital PCR (ddPCR) and is reported in Table 3 set out below. […]

DUX4 [6] = test: ddPCR of transfected DUX4 in drug-treated HEK293 cells; type: cell-based, human; conditions: vs ethanol vehicle
Procedure: as §2, with “Cycling conditions were set up following the QX200 ddPCR Evagreen Supermix protocol. All assays are compatible with an annealing temperature of 58° C.” left out
Three small molecule candidates (β-estradiol, a combination of β-estradiol+medroxyprogesterone acetate (MPA), and melatonin) were tested for their ability to upregulate mir-675-5p in HEK293 cells and in human myotubes. […] 24 hours after treatment, mir-675-5p expression was measured by Droplet Digital PCR (ddPCR). […]

SMILES	reduction of ZSCAN4 expression (ZSCAN4) [%]	mir-675 expression (mir-675)	reduction of TRIM43 expression (TRIM43 [2]) [%]	mir-675-5p (% increase) (mir-675-5p [3]; 15A 5DD myotubes, N = 6)	mir-675-5p (% increase) (mir-675-5p [3]; 17A 5DD myotubes, N = 3)	mir-675-5p (% increase) (mir-675-5p [3]; 18A 5DD myotubes, N = 3)	TRIM43 (% decrease) (TRIM43 [4]; 20 μM, HEK293)	mir-675-5p (% increase) (mir-675-5p [5]; 20 μM) [%]	DUX4 (% decrease) (DUX4 [6]; 20 μM)	DUX4 (% decrease) (DUX4 [1]; 15A 5DD myotubes, N = 6)	DUX4 (% decrease) (DUX4 [1]; 17A 5DD myotubes, N = 3)	DUX4 (% decrease) (DUX4 [1]; 18A 5DD myotubes, N = 3)	TRIM43 (% decrease) (TRIM43 [2]; 15A 5DD myotubes, N = 6)	TRIM43 (% decrease) (TRIM43 [2]; 17A 5DD myotubes, N = 3)	TRIM43 (% decrease) (TRIM43 [2]; 18A 5DD myotubes, N = 3)	other results
CNC(=O)c1cc(Oc2ccc(NC(=O)Nc3ccc(Cl)c(C(F)(F)F)c3)cc2)ccn1 [Sorafenib, 4-[4-[[4-chloro-3-(trifluoromethyl)phenyl]carbamoylamino]phenoxy]-N-methylpyridine-2-carboxamide]	68±3	upregulated mir-675 expression	70±4	–	–	–	–	–	–	–	–	–	–	–	–	reduction of DUX4 expression (DUX4 [1]; 18A FSHD myotubes, 40 μM, added 4th day, collected 5th day of differentiation): 40±10%
C[C@]12CC[C@@H]3c4ccc(O)cc4CC[C@H]3[C@@H]1CC[C@@H]2O [β-estradiol]	–	–	–	47 ± 11 | *, %	38 ± 09 | *, %	382 ± 44 | ***, %	significant decrease	92 ± 34	significant decrease	70 ± 38 | *, %	63 ± 19 | *, %	49 ± 19 | *, %	46 ± 40 | NS, %	31 ± 12 | *, %	57 ± 07 | ** , %	mir-675-5p (% increase) (mir-675-5p [5]; 10 μM): 22 ± 06%
NC(=O)c1cnccn1 [Pyrazinamide, pyrazine-2-carboxamide]	42±6	upregulated mir-675 expression	35±7	–	–	–	–	–	–	–	–	–	–	–	–	–
COc1ccc2[nH]cc(CCNC(C)=O)c2c1 [Melatonin, melatonin]	–	mir-675 was induced	–	44 ± 16 | *, %	48 ± 09 | **, %	154 ± 59 | *, %	52 ± 01%	229 ± 53	90 ± 01%	88 ± 40 | **, %	55 ± 09 | *, %	38 ± 17 | *, %	75 ± 45 | *, %	30 ± 12 | *, %	70 + 15 | ***, %	+anti-mir-675 (300 nM) TRIM43 (% increase) (TRIM43 [4]; 20 μM, HEK293, co-transfected anti-mir-675 300 nM): 21 ± 01%; TRIM43 (% decrease) (TRIM43 [4]; 40 μM, HEK293): 58 ± 01%; +CMV.DUX4-mir-675Res TRIM43 (% decrease) (TRIM43 [4]; 40 μM, HEK293 transfected with CMV.DUX4-mir-675Res): 0.1 ± 16%; mir-675-5p (% increase) (mir-675-5p [5]; 40 μM): 246 ± 53%; DUX4 (% decrease) (DUX4 [6]; 40 μM): 93 ± 01%
